# Results published in ChEMBL document CHEMBL5352429, “Designed symmetrical β-hairpin peptides for treating multidrug-resistant salmonella typhimurium infections” (Eur J Med Chem, 2022).
# Active and inactive are the calls of the source. No cut-off for these calls is given here. Peptide text beside a SMILES is read from it.
# Experiments:
# Salmonella paratyphi = assay: Antibacterial activity against Salmonella paratyphi A CICC 21501 incubated overnight by standard microtiter dilution method; format: functional, Salmonella enterica subsp. enterica serovar Paratyphi A; conditions: Salmonella enterica
# RAW264.7 = assay: Inhibition of LPS-stimulated IL-1beta production in mouse RAW264.7 cells at 1 to 128 ug/ml incubated for 24 hrs by ELISA analysis; format: functional, cell-based; conditions: dose 1-128 µg/ml
# Salmonella typhimurium [1] = assay: Antibacterial activity against Salmonella typhimurium DT104 assessed as reduction in IL-6 mRNA level in ileum at 20 mg/kg, ip administered for 3 days and measured on day 7 by RT-PCR analysis; format: functional, organism-based; conditions: Salmonella enterica subsp. enterica serovar Typhimurium, time 7.0 day
# Salmonella typhimurium [2] = assay: Antibacterial activity against Salmonella typhimurium DT104 assessed as increase in ZO-1 mRNA level in colon at 20 mg/kg, ip administered for 3 days and measured on day 7 by RT-PCR analysis; format: functional, organism-based; conditions: Salmonella enterica subsp. enterica serovar Typhimurium, time 7.0 day
# Salmonella typhimurium [3] = assay: Antibacterial activity against Salmonella typhimurium DT104 infected in ICR mouse model assessed as alleviation of villi shortening at 20 mg/kg, ip administered for 3 days and measured on day 7 by H&E staining based analysis; format: functional, organism-based; conditions: Salmonella enterica subsp. enterica serovar Typhimurium, time 7.0 day
smiles,measurement,setting,value
C[C@@H](O)[C@H](NC(=O)[C@H](CS)NC(=O)[C@H](CCCCN)NC(=O)[C@H](Cc1c[nH]c2ccccc12)NC(=O)[C@H](CCCCN)NC(=O)[C@@H](N)Cc1c[nH]c2ccccc12)C(=O)N[C@@H](CCCCN)C(=O)N[C@@H](CO)C(=O)NCC(=O)N[C@@H](CS)C(=O)N[C@@H](CCCCN)C(=O)N[C@@H](Cc1c[nH]c2ccccc12)C(=O)N[C@@H](CCCCN)C(=O)N[C@@H](Cc1c[nH]c2ccccc12)C(N)=O (H-WKWKCTKSGCKWKW-NH2),MIC,Salmonella paratyphi,8 µg/mL
same,inhibition,RAW264.7,Active
same,Activity,Salmonella typhimurium [1],Active
same,Activity,Salmonella typhimurium [2],Active
same,Activity,Salmonella typhimurium [3],Active
